Our source for the IC50 values is PubChem BioAssay AID651974 (The Scripps Research Institute Molecular Screening Center, 2013).

Active and inactive are the calls of the source. No rule for the calls is given here.

This experiment is described as follows: compounds lowering VP16-driven luciferase output – cell-based, luminescence, dose response, counter-screen for LRH-1 inverse agonist project, late-stage follow-up (AID 651974). Conditions: HEK293 cells transfected with Gal4-VP16 and pGL4.31 luciferase reporter. In general terms: The purpose of a counterscreen is to sort out artefacts and off-target activity.

Broadly, the IC50 is the concentration needed to halve the response being measured.

As to `Cc1cccc(NC(=O)COC(=O)CN2C(=O)c3ccccc3C2=O)c1C`, the IC50 is > 35.9 µM (inactive).

As for `CCCN(CC(=O)Nc1ccc(C(C)=O)cc1)CC(=O)Nc1ccccc1C`, the IC50 was > 35.9 µM (inactive).

Turning to `CCCc1cc(=O)oc2cc(C)cc(OCC(=O)NC3CC3)c12`, the IC50 was > 35.9 µM (inactive).

For the compound `Cc1cc(C)c2sc(NC(=O)c3ccc([N+](=O)[O-])o3)nc2c1`, the IC50 was > 35.9 µM (inactive).

Take `O=C(OCC(=O)N1CCN(C(=O)COC(=O)c2ccc(O)cc2O)CC1)c1ccc(O)cc1O`: the IC50 is > 35.9 µM (inactive).

With `COc1ccc(NC(=O)CSc2ccc3c(c2)OCCO3)cc1`, the IC50 is > 35.9 µM (inactive).

Regarding `CCOc1ccc(NC(=O)CSc2nccn(-c3ccc4c(c3)OCCO4)c2=O)cc1`, the IC50 is > 35.9 µM (inactive).

As to `CCc1c(C)nc(SCC(=O)Nc2ccc3c(c2)OCCO3)[nH]c1=O`, the IC50 is > 35.9 µM (inactive).

As for `O=C(COc1ccc2c3c(c(=O)oc2c1)CCC3)NCc1ccncc1`, the IC50 is > 35.9 µM (inactive).

With `CC(=O)Nc1ncc(Cc2cc(Cl)ccc2Cl)s1`, the IC50 was > 35.9 µM (inactive).

Consider `CCOc1ccc(NC(=O)CSc2nc3[nH]ncc3c(=O)[nH]2)cc1`, for which the IC50 was > 35.9 µM (inactive).

Consider `COc1ccc(NC(=O)CSc2nnc3ccc(-c4cccnc4)nn23)cc1OC`, for which the IC50 was > 35.9 µM (inactive).

For the compound `Cc1ccc(NC(=O)CSc2sc3c(O)cc(=O)[nH]c3c2C#N)c(F)c1`, the IC50 is > 35.9 µM (inactive).

On to `CN1CCN(c2ccc(S(=O)(=O)N3CCCCC3)cc2NC(=O)COc2ccc([N+](=O)[O-])cc2)CC1`, for which the IC50 is > 35.9 µM (inactive).

Take `CC(=O)Nc1ccc(N=c2cc([N+](=O)[O-])cc(Cl)n2O)cc1`: the IC50 was > 35.9 µM (inactive).

As for `N#CCSc1ccccc1NC(=O)CN1C(=O)C2CC=CCC2C1=O` (stereo not given), the IC50 is > 35.9 µM (inactive).

`O=C(CSc1nnc(CNC(=O)c2c(F)cccc2F)o1)Nc1ccc2c(c1)OCCO2`: the IC50 is > 35.9 µM (inactive).

`Cc1ccc(NC(=O)COC(=O)C(NS(=O)(=O)c2ccc(Cl)cc2)C(C)O)c(Br)c1` (stereo not given): the IC50 was > 35.9 µM (inactive).

On to `COc1ccc(CCNC(=O)CSc2nn3c(=O)c(C)nnc3s2)cc1OC`, for which the IC50 was > 35.9 µM (inactive).

In the case of `CC(C)CC1(C)NC(=O)N(CC(=O)Nc2ccc3c(c2)OCCO3)C1=O` (stereo not given), the IC50 was > 35.9 µM (inactive).

For `COc1ccc(NC(=O)COC(=O)c2cc(S(=O)(=O)N3CCCC3)ccc2O)cc1`, the IC50 was > 35.9 µM (inactive).

With `Cc1cccc(NC(=O)COC(=O)Cc2cccs2)c1C`, the IC50 is > 35.9 µM (inactive).

On to `CCOc1ccc(NC(=O)CN2CCN(CC(=O)Nc3ccc(OC)cc3)CC2)cc1`, for which the IC50 was > 35.9 µM (inactive).

`CCOc1ccc(NC(=O)COC(=O)COc2cccc3c2OC(C)(C)C3)cc1`: the IC50 is > 35.9 µM (inactive).

`COC(=O)c1ccc(CNC(=O)COC(=O)c2cc(Cl)nc(Cl)c2)cc1`: the IC50 was > 35.9 µM (inactive).

Turning to `Cc1ccc2cccc(OCC(=O)NCCC3=CCCCC3)c2n1`, the IC50 was > 35.9 µM (inactive).

`COC(=O)c1ccc(NC(=O)CSc2nc3ncccc3[nH]2)cc1`: the IC50 is > 35.9 µM (inactive).

Take `O=C(COC(=O)c1ccc(Br)cc1)Nc1ccccc1Br`: the IC50 was > 35.9 µM (inactive).

Regarding `CCOc1ccc(OCCN2C(=O)NC(Cc3c[nH]c4ccccc34)C2=O)cc1` (stereo not given), the IC50 was > 35.9 µM (inactive).

With `O=C(COC(=O)c1ccc[n+]([O-])c1)Nc1ccc([N+](=O)[O-])cc1Cl`, the IC50 was > 35.9 µM (inactive).

Turning to `CCCc1cc(=O)oc2cc(OCC(=O)NCCc3ccc(S(N)(=O)=O)cc3)ccc12`, the IC50 was > 35.9 µM (inactive).

Regarding `O=C(COC(=O)CCN1C(=O)C2CC=CCC2C1=O)NCCc1ccc(F)cc1` (stereo not given), the IC50 was > 35.9 µM (inactive).

Regarding `COc1ccc(CCNC(=O)COC(=O)c2cccn2C)cc1`, the IC50 is > 35.9 µM (inactive).

Consider `COc1ccc(NC(=O)CSc2sc3c(O)cc(=O)[nH]c3c2C#N)c(OC)c1`, for which the IC50 is > 35.9 µM (inactive).

Take `CCCc1cc(=O)oc2c(C)c(OCC(=O)NC3CC(C)(C)NC(C)(C)C3)ccc12`: the IC50 was > 35.9 µM (inactive).

Regarding `CCCc1cc(=O)oc2c(C)c(OCC(=O)NCCN3CCOCC3)ccc12`, the IC50 is > 35.9 µM (inactive).

Take `CCOc1ccc(NC(=O)COC(=O)CC2CCCCC2)cc1`: the IC50 is > 35.9 µM (inactive).

Turning to `Cc1ccc(NC(=O)COC(=O)c2cc(=O)c3ccccc3o2)c(Br)c1`, the IC50 was > 35.9 µM (inactive).

Regarding `CC(=O)c1ccc(NC(=O)C(C)O/N=C(\N)c2ccccc2)cc1` (stereo not given), the IC50 is > 35.9 µM (inactive).

As for `Cc1sc(NC(=O)C(C)C)c(C(=O)Nc2ccccc2)c1C`, the IC50 is > 35.9 µM (inactive).

As to `Cc1cc(Br)ccc1NC(=O)CN1C(=O)C2CC=CCC2C1=O` (stereo not given), the IC50 was > 35.9 µM (inactive).

On to `CCn1c(SCC(=O)Nc2ccc(Cl)cc2)nnc1C1CC1`, for which the IC50 is > 35.9 µM (inactive).

In the case of `O=C(Nc1ccc(Br)cn1)c1ccc([N+](=O)[O-])o1`, the IC50 was > 35.9 µM (inactive).

Consider `Cc1ccc(-c2csc(NC(=O)c3ccc([N+](=O)[O-])o3)n2)cc1`, for which the IC50 was > 35.9 µM (inactive).

Turning to `COc1ccc(NS(=O)(=O)c2ccc(OCC(=O)N3CCN(C)CC3)cc2)cc1Cl`, the IC50 was > 35.9 µM (inactive).

With `COc1ccc(NC(=O)CN2C(=O)NC3(CCCC3)C2=O)cc1`, the IC50 is > 35.9 µM (inactive).

Turning to `Cc1cc(=O)oc2c(C)c(OCC(=O)NC3CC(C)(C)NC(C)(C)C3)ccc12`, the IC50 was > 35.9 µM (inactive).

For `COC(=O)c1ccc(NC(=O)COc2cccc(-n3cnnn3)c2)cc1`, the IC50 is > 35.9 µM (inactive).

In the case of `COCC(=O)NC1CCN(CC(=O)Nc2ccc(OC)cc2[N+](=O)[O-])CC1`, the IC50 is > 35.9 µM (inactive).

For `CCCc1cc(=O)oc2c(C)c(OCC(=O)NCCCn3ccnc3)ccc12`, the IC50 was > 35.9 µM (inactive).

Regarding `COCCn1c(C)cc(/C=C(\C#N)C(=O)OCC(=O)Nc2ccc(S(N)(=O)=O)cc2)c1C`, the IC50 is > 35.9 µM (inactive).

Turning to `COc1ccc(CCNC(=O)CSc2nc3[nH]c(=O)cc(O)c3s2)cc1`, the IC50 was > 35.9 µM (inactive).

Turning to `Cc1ccn2c(=O)nc(SCC(=O)Nc3ccc4c(c3)OCCO4)nc2c1`, the IC50 was > 35.9 µM (inactive).

For `Cc1nn(CC(=O)Nc2ccc3c(c2)OCCO3)c(C)c1[N+](=O)[O-]`, the IC50 is > 35.9 µM (inactive).

As for `COc1ccc(-n2c(N)c(C(=O)NCc3cccnc3)sc2=S)cc1`, the IC50 is > 35.9 µM (inactive).

As to `CC1SC(C)C(=O)N(CC(=O)Nc2ccc3c(c2)OCO3)C1=O` (stereo not given), the IC50 was > 35.9 µM (inactive).

In the case of `CCOc1ccc(NC(=O)CSc2nncc(=O)n2N)cc1`, the IC50 was > 35.9 µM (inactive).

Regarding `CCCc1cc(=O)oc2cc(OCC(=O)NCc3ccccn3)ccc12`, the IC50 is > 35.9 µM (inactive).

Take `Cc1cc(OCC(=O)Nc2nccs2)c2c(C)cc(=O)oc2c1`: the IC50 was > 35.9 µM (inactive).

With `COC(=O)c1ccc(NC(=O)CN2CCN(c3ccc(Cl)cc3)CC2)cc1`, the IC50 was > 35.9 µM (inactive).

Take `CCOc1ccc(NC(=O)CSc2nnc(C(C)C)n2CC)cc1`: the IC50 is > 35.9 µM (inactive).

For `CCOc1ccc(NC(=O)COC(=O)c2ccc3c(c2)OCCO3)cc1`, the IC50 was > 35.9 µM (inactive).

For `COc1ccc(CC(NC(C)=O)C(=O)NC2CCN(c3nnnn3-c3ccccc3)CC2)cc1` (stereo not given), the IC50 was > 35.9 µM (inactive).

With `O=C1CCCN2N=C(SCC(=O)Nc3ccc(Br)cc3)SC2=N1`, the IC50 is > 35.9 µM (inactive).

As to `COc1ccc(CCNC(=O)COC(=O)C23CC4CC(CC(C4)C2)C3)cc1`, the IC50 was > 35.9 µM (inactive).
